Patent US20140263071A1, “METHOD FOR COLLECTING METALS” (CHEMEC OY AB, priority 2011, published 2014)
Like-named read-outs stand apart in the source and are kept apart here.

Legend:
[1] = Solubility of the compounds, molybdenum blue method, UV/Vis 880 nm (Example 6); assay type: physicochemical; settings: saturated aqueous solution
Text: The low solubility is achieved by using long carbon chain(s) or aromatic ring(s) in the bisphosphonate structure I. Advantageously, compound I contains 7-16 carbon atoms either in chain, branched chain or cyclic structure or in combination of these structural units between A and X, and preferably in the chain starting from the P-C-P bridging carbon and the number of heteroatomic functional groups excluding the phosphorous functionalities are limited to two or three groups. The solubility decreases even more if compound I contains functional groups which are capable to form twitter ions with each other. Typical examples of twitter ions are acids (e.g., —CO2H or —PO3H2) and bases (amines) in the same molecule. Solubilities of selected bisphosphonate compounds I were determined with UV/Vis spectrophotometer at 880 nm using molybdenum blue method (Finnish Standard Association SFS 3026: Determination of phosphate in water. Finnish Standard Association SFS, Helsinki Finland, 1986).
Solubilities of selected compounds were determined with UV/Vis Spectrophotometer at 880 nm using molybdenum blue method from saturated aqueous samples solutions (Finnish Standard Association SFS 3026: Determination of phosphate in water. Finnish Standard Association SFS, Helsinki Finland, 1986).

[2] = Concentration of diluted samples, recovery after 1:10000 dilution (Example 24); settings: 1e 1 g in 10 liters
Procedure: A water solution (100 ml) containing 100 ppb of desired metallic element prepared from Merch Titrisol® standard was diluted to 10 liters of water, pH was adjusted and the mixture was treated with 1e (1 g) for 24 h with stirring. After filtration trough sintered disc (porosity G-4), the solids were decomposed by using microware digestion, the residue was dilution to known volume of water (10 ml) and metal concentrations were determined by using AAS method.

[3] = Expulsion of Cu^2+, Ni^2+ and Fe^3+ without and with activated carbon (Example 9); settings: pH 3, without activated carbon
Procedure: (§1) A water solution (110 ml) containing known amount of single cationic element or elements, typically 0.5-200 ppm, was prepared from Merch Titrisol® standard solution. After adjusting pH by using acid (e.g. HCl or HNO3) or base (e.g. NaOH) to desired initial value, sample A (10 ml) was taken followed by adding 100 mg of selected solid complexation agent. The mixture was stirred at room temperature for 24 h and sample B (10 ml) was taken. Samples A and B were filtrated separately trough 0.2 μm syringe filter and the concentration of the studied element or elements in both solution was determined by using atomic absorption spectrophotometer. The expulsion percent was determined from the concentration differences between the sample solutions A and B.
Using the general procedure described above expulsion percent of Cu^2+, Ni^2+ and Fe^3+ cations were determined at pH 3, when compounds 2a, 2b, 5b, 6b and 6c were used as complexation agents. Experiments were repeated also by adding activated carbon (100 mg) to solution at the same time with the used complexation agent.

[4] = Collection of Cu^2+ ions from solution with the prepared bisphosphonates (Example 26); settings: 1.00 ppm Cu^2+; pH 3; 50 mg bisphosphonate in 50 ml
Procedure: as §1
A solution containing 1.00 ppm of Cu^2+ cations at pH 3 was prepared and 50 ml of that solution was treated with the desired solid bisphosphonate (50 mg) using the procedure described in general procedure. Collection-% was determined for the following compounds (Cu^2+ collection-% in parenthesis): 3a (16%), 3b (88%), 3c (93%), 4 (95%), 5a (20%), 5b (18%), 5c (85%), 6b (48%), 6c (100%), 6d (100%), 7a (88%), 7b (100%), 8b (85%), 8c (88%), 8d (94%), 8e (73%) and 9b (76%).

[5] = Removal of Cr^3+ from acidic solution, TS 4 diluted 1:100 (Example 19); settings: TS 4 diluted 1:100, pH 3.67, 1.0 g agent in 50 ml, 24 h
Procedure: A test solution containing 24000 mg/l of Na^+; 50-2000 mg/l of Ca^2+, Cr^3+, K^+ and Mg^2+; and trace amount of Al^3+, Fe^2/3+, Mn^2+, Ni^2+, Sr^2+, V^4+, and Zn^2+ cations were prepared.
TS 4 was diluted to 1:100 with water, pH (3.67) of the solution was determined and sample A was taken. A part (50 ml) of the diluted solution was treated with 1a, 6d or 7a (1.0 g) for 24 h with stirring at room temperature. After filtration trough 0.2 μm syringe filter, the expulsion per for Cr(III) was determined compared to original solution A. The results of expulsion per cents of Cr^3+ and some other elements are given in Table 13.

[6] = read-out: mg/l (solubility calculated for whole molecule)
[7] = read-out: mg/l P (solubility calculated as elemental phosphorus)

| SMILES | solubility [1, 6] [mg/L] | solubility [1, 7] [mg/L] | Cu^2+ collection-% [4] [%] | other results |
| --- | --- | --- | --- | --- |
| NCCCCCCCCC(O)(P(=O)(O)O)P(=O)(O)O [Compound 1c, 9-Amino-1-hydroxynonane-1,1-diyldiphosphonic acid] | 2180 | 400 | – | – |
| NCCCCCCCCCCCCCCCC(O)(P(=O)(O)O)P(=O)(O)O [Compound 1f, 16-Amino-1-hydroxyhexadecane-1,1-diyldiphosphonic acid] | 42 | 6 | – | – |
| CCCCCCCCCCC(O)(P(=O)(O)O)P(=O)(O)O [Compound 3c, 1-Hydroxyundecane-1,1-diyldiphosphonic acid] | – | 0.3 | 93 | – |
| CCCCCCCC/C=C\CCCCCCCC(O)(P(=O)(O)O)P(=O)(O)O [Compound 4, (Z)-1-Hydroxyoctadec-9-ene-1,1-diyldiphosphonic acid] | – | – | 95 | – |
| O=P(O)(O)C(O)(CCCCc1ccccc1)P(=O)(O)O [Compound 5a, 1-Hydroxy-5-phenylpentane-1,1-diyldiphosphonic acid] | – | 1.8 | 20 | – |
| CCCCCCCCCCC(P(=O)(O)O)P(=O)(O)O [Compound 6b, Undecane-1,1-diyldiphosphonic acid] | – | 0.7 | 48 | Expulsion [%] Cu^2+ [3]: 1.3%; Expulsion [%] Fe^3+ [3]: 3.9%; Expulsion [%] Ni^2+ [3]: 17.2% |
| CCCCCCCCC(N)(P(=O)(O)O)P(=O)(O)O [Compound 7a, 1-Aminononane-1,1-diyldiphosphonic acid] | – | 0.08 | 88 | Expulsion [%] Cr^3+ [5]: 85% |
| C[N+](C)(C)CCCCCCCCCCC(O)(P(=O)(O)O)P(=O)(O)O.[Cl-] [Compound 8b, 11-Hydroxy-N,N,N-trimethyl-11,11-diphosphonoundecan-1-aminium chloride] | – | – | 85 | – |
| CC(=O)NCCCCCCCCCCC(O)(P(=O)(O)O)P(=O)(O)O [Compound 8c, 11-Acetamido-1-hydroxyundecane-1,1-diyldiphosphonic acid] | – | – | 88 | – |
| O=C(O)CCCCCCCCCCSCC(P(=O)(O)O)P(=O)(O)O [Compound 8d, 11-((2,2-diphosphonoethyl)thio)undecanoic acid] | – | – | 94 | – |
| O=C(O)CCCCCNCC(P(=O)(O)O)P(=O)(O)O [Compound 8e, 6-((2,2-diphosphonoethyl)amino)hexanoic acid] | – | – | 73 | – |
| CCCCCCCCCCCC(=O)OC(C)(P(=O)(O)O)P(=O)(O)O [Compound 9b, 1-(Dodecanoyloxy)ethane-1,1-diyldiphosphonic acid] | – | – | 76 | – |

Further lines, with some results ahead:

| solubility [1, 6] [mg/L] | solubility [1, 7] [mg/L] | SMILES | Cu^2+ collection-% [4] [%] | other results |
| --- | --- | --- | --- | --- |
| 2220 | 426 | NCCCCCCCC(O)(P(=O)(O)O)P(=O)(O)O [Compound 1b, 8-Amino-1-hydroxyoctane-1,1-diyldiphosphonic acid] | – | – |
| 227 | 40 | NCCCCCCCCCC(O)(P(=O)(O)O)P(=O)(O)O [Compound 1d, 10-Amino-1-hydroxydecane-1,1-diyldiphosphonic acid] | – | – |
| 31 | 5 | NCCCCCCCCCCCC(O)(P(=O)(O)O)P(=O)(O)O [Compound 1e, 12-Amino-1-hydroxydodecane-1,1-diyldiphosphonic acid] | – | Yield [%] (recovery) ([2]; Cd^2+, pH 3.6): 98%; Yield [%] (recovery) ([2]; Cr^3+, pH 3.0): 98%; Yield [%] (recovery) ([2]; Cr^3+, pH 7.0): 97%; Yield [%] (recovery) ([2]; Hg^2+, pH 2.0): 93%; Yield [%] (recovery) ([2]; Hg^2+, pH 4.9): 94%; Yield [%] (recovery) ([2]; Hg^2+, pH 9.2): 94%; Yield [%] (recovery) ([2]; Hg^+, pH 2.0): 89%; Yield [%] (recovery) ([2]; Hg^+, pH 5.0): 92%; Yield [%] (recovery) ([2]; Hg^+, pH 9.2): 92%; Yield [%] (recovery) ([2]; Pb^2+, pH 3.2): 100%; Yield [%] (recovery) ([2]; Pb^2+, pH 5.0): 85%; Yield [%] (recovery) ([2]; UO2^2+, pH 3.0): 87% |
| 594 | 97 | CNCCCCCCCCCCC(O)(P(=O)(O)O)P(=O)(O)O [Compound 2a, 1-Hydroxy-11-(methylamino)undecane-1,1-diyldiphosphonic acid] | – | Expulsion [%] Cu^2+ [3]: 16.4%; Expulsion [%] Fe^3+ [3]: 44.7%; Expulsion [%] Ni^2+ [3]: 13.3% |
| 22900 | 3870 | O=P(O)(O)C(O)(CCCCCCCCCCO)P(=O)(O)O [Compound 2b, 1,11-Dihydroxyundecane-1,1-diyldiphosphonic acid] | – | Expulsion [%] Cu^2+ [3]: 100.0%; Expulsion [%] Fe^3+ [3]: 92.6%; Expulsion [%] Ni^2+ [3]: 6.9% |
| 54 | 12 | CCCCCC(O)(P(=O)(O)O)P(=O)(O)O [Compound 3a, 1-Hydroxyhexane-1,1-diyldiphosphonic acid] | 16 | – |
| 5 | 1 | CCCCCCCCC(O)(P(=O)(O)O)P(=O)(O)O [Compound 3b, 1-Hydroxynonane-1,1-diyldiphosphonic acid] | 88 | – |
| – | 79 | Nc1ccc(CCCC(O)(P(=O)(O)O)P(=O)(O)O)cc1 [Compound 5b, 4-(4-Aminophenyl)-1-hydroxybutane-1,1-diyldiphosphonic acid] | 18 | Expulsion [%] Cu^2+ [3]: 21.4%; Expulsion [%] Fe^3+ [3]: 56.3%; Expulsion [%] Ni^2+ [3]: 7.9% |
| – | 0.2 | O=P(O)(O)C(O)(CCCCCCc1ccccc1)P(=O)(O)O [Compound 5c, 1-Hydroxy-7-phenylheptane-1,1-diyldiphosphonic acid] | 85 | – |
| – | 0.2 | CCCCCCCCCCCCC(P(=O)(O)O)P(=O)(O)O [Compound 6c, Tridecane-1,1-diyldiphosphonic acid] | 100 | Expulsion [%] Cu^2+ [3]: 20.8%; Expulsion [%] Fe^3+ [3]: 19.0%; Expulsion [%] Ni^2+ [3]: 20.8% |
| – | 0.03 | CCCCCCCCCCCCCCCCC(P(=O)(O)O)P(=O)(O)O [Compound 6d, Heptadecane-1,1-diyldiphosphonic acid] | 100 | Expulsion [%] Ca^2+ ([5]; Ca^2+): 11%; Expulsion [%] Cr^3+ [5]: 100%; Expulsion [%] K^+ ([5]; K^+): 52%; Expulsion [%] Mg^2+ ([5]; Mg^2+): 80%; Expulsion [%] Na^+ ([5]; Na^+): 39% |
| – | 0.05 | CCCCCCCCCC(N)(P(=O)(O)O)P(=O)(O)O [Compound 7b, 1-Aminodecane-1,1-diyldiphosphonic acid] | 100 | – |
